pIC50: −log10 of the molar value.

In general, pIC50 refers to the IC50 on a negative log10 scale, so that one unit is a factor of ten.

Common to all, as to type: in vitro ADME
One series concerns the target T1, CYP1A (Homo sapiens, UniProt P05177).
T1 construct: Two studies were conducted in human liver microsomes (HLM); tissue Eurofins G232 panel; host or cells: human liver microsomes
T1 sequence (P05177 1-516): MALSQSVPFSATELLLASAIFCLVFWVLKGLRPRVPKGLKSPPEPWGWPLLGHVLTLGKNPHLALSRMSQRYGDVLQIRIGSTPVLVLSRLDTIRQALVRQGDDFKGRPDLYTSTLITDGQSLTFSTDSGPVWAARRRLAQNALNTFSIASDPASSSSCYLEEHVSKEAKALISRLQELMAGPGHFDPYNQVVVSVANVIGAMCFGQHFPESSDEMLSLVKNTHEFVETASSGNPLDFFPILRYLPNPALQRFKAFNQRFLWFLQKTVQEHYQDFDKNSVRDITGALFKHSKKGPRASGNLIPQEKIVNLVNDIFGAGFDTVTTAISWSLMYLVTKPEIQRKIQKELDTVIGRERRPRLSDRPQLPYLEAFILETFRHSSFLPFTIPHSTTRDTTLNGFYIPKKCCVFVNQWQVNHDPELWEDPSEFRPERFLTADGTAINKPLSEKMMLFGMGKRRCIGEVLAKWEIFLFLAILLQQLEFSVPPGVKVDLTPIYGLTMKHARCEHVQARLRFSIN
Kind of series: CYP1A inhibition (HLM) phenacetin. The protocol:
(§1) Compound 5 (PTG-630 free base) and 7 additional compounds for CYP3A P450 inhibition.
(§2) Two studies were conducted in human liver microsomes (HLM). Lead candidate PTG-630 was tested using the Eurofins G232 panel (Drug Metab Dispos. 2001 January; 29(1):23-9), where inhibition was measured against seven CYP enzymes; CYP3A4 was tested using two different substrates, midazolam and testosterone. In a second study, inhibition of CYP3A4 (midazolam substrate only) was compared for 8 compounds of interest. The test protocol involved one-point measurements in duplicate, where inhibition was measured at a fixed 10 μM concentration of candidate inhibitors. In all cases, the substrate for each CYP enzyme was at a concentration equal to its specific Km value that was independently obtained from an 8-point dose-response study. Based on the observed value for percent inhibition for each test compound, we calculated of an IC50 assuming a competitive mode of inhibition. If percent inhibition for an inhibitor at a concentration of [I] is denoted by P, then: IC50=[I]*(100−P)/P In the single-point assay, [I] is 10 μM. If measured inhibition is 10%, then IC50=10*(100-10)/10=90 μM. […] As discussed in Lin et al. (J Pharm Sci. 2007 September; 96(9):2485-93; doi: 10.1002/jps.20884), CYP inhibition is broadly interpreted as being “potent” if IC50<1 μM, “moderate” if 1 μM<IC50<10 μM, and “weak” if IC50>10 μM.

The target in another series is T2, CYP2B6 (Homo sapiens, UniProt P20813).
T2 construct: Two studies were conducted in human liver microsomes (HLM); tissue Eurofins G232 panel; host or cells: human liver microsomes
T2 sequence (P20813 1-491): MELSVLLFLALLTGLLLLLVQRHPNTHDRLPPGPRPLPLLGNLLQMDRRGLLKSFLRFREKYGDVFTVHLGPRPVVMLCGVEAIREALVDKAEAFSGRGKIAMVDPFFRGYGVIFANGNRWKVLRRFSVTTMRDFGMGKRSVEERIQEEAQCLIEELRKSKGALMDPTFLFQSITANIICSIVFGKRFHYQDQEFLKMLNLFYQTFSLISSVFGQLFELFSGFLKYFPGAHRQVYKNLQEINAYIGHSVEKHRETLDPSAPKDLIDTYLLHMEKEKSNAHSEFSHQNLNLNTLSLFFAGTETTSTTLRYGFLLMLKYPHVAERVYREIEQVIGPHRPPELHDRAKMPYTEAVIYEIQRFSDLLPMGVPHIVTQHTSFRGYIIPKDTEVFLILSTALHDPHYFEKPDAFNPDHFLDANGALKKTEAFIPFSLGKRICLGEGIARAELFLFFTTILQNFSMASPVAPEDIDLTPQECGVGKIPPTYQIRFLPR
Particulars: microsomes. The protocol: as §1, §2

The next series deals with T3, CYP2C8 (Homo sapiens, UniProt P10632).
T3 construct: Two studies were conducted in human liver microsomes (HLM); tissue Eurofins G232 panel; host or cells: human liver microsomes
T3 sequence (P10632 1-490): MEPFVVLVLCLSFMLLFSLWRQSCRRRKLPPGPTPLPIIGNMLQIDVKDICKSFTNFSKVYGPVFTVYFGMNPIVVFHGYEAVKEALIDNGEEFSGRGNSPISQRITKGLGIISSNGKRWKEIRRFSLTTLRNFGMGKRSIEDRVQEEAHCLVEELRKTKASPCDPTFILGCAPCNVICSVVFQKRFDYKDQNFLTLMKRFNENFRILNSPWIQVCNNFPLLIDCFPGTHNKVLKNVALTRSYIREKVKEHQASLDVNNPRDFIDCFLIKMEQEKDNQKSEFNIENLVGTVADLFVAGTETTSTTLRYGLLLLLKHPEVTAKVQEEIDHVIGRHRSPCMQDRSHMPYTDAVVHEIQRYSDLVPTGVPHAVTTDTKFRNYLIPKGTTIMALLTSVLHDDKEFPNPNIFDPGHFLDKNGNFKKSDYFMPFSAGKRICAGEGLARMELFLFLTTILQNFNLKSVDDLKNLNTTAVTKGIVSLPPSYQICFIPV
The following applies: microsomes. The protocol:
as §1, §2

The next series concerns the target T4, CYP2C9 (Homo sapiens, UniProt P11712).
T4 construct: Two studies were conducted in human liver microsomes (HLM); tissue Eurofins G232 panel; host or cells: human liver microsomes
Description: CYP2C9 inhibition (HLM), diclofenac. The protocol: as §1, §2

The target in a further series is T5, CYP3A (Homo sapiens, UniProt P08684).
T5 construct: Two studies were conducted in human liver microsomes (HLM); tissue Eurofins G232 panel; host or cells: human liver microsomes
The following applies: HLM.
Description: as §1
Imidazole (and benzimidazole) containing drugs are ubiquitous in pharmacological practice; however, drug-drug interactions (DDI) have been observed with some imidazole-containing classes, such as the antifungal azoles typified by ketoconazole. It is believed that the imidazole moiety accounts for their ability to inhibit CYP3A, the major DDI enzyme that metabolizes up to 50% of common drugs. The compounds of the disclosure incorporate an imidazole moiety attached to a pyridine ring via the imidazole C-2. They all share an imidazo-hydroxypyridine theme that can bind redox metal ions, while differing in the nature of the X side-chain. The potential of the compounds of the disclosure for DDI was evaluated by screening their inhibition of CYP3A.
Two studies were conducted in human liver microsomes (HLM). Lead candidate PTG-630 was tested using the Eurofins G232 panel (Drug Metab Dispos. 2001 January; 29(1):23-9), where inhibition was measured against seven CYP enzymes; CYP3A4 was tested using two different substrates, midazolam and testosterone. In a second study, inhibition of CYP3A4 (midazolam substrate only) was compared for 8 compounds of interest. The test protocol involved one-point measurements in duplicate, where inhibition was measured at a fixed 10 μM concentration of candidate inhibitors. In all cases, the substrate for each CYP enzyme was at a concentration equal to its specific Km value that was independently obtained from an 8-point dose-response study. Based on the observed value for percent inhibition for each test compound, we calculated of an IC50 assuming a competitive mode of inhibition. If percent inhibition for an inhibitor at a concentration of [I] is denoted by P, then: IC50=[I]*(100−P)/P In the single-point assay, [I] is 10 μM. If measured inhibition is 10%, then IC50=10*(100-10)/10=90 μM. […]

A further series has as its system seven CYP enzymes. Kind of series: Eurofins G232 panel, CYP inhibition in human liver microsomes. Particulars: HLM, 10 μM. The protocol: as §2
On the technique in general: Microsomes from liver hold many membrane-bound enzymes, among them those of drug oxidation.

T5 sequence (P08684 2-503): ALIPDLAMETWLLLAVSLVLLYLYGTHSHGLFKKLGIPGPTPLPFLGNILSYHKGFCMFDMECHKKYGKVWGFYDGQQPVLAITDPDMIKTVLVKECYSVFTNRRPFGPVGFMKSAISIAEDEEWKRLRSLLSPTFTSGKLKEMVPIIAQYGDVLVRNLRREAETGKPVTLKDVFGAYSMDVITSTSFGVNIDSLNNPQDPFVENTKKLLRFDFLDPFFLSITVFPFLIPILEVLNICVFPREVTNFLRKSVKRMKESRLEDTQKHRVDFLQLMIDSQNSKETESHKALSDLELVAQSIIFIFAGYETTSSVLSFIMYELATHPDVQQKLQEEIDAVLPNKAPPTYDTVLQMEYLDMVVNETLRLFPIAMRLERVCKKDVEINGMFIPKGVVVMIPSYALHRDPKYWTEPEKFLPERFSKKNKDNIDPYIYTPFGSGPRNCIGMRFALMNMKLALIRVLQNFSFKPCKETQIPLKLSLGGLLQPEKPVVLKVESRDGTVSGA
T4 sequence (P11712 whole entry): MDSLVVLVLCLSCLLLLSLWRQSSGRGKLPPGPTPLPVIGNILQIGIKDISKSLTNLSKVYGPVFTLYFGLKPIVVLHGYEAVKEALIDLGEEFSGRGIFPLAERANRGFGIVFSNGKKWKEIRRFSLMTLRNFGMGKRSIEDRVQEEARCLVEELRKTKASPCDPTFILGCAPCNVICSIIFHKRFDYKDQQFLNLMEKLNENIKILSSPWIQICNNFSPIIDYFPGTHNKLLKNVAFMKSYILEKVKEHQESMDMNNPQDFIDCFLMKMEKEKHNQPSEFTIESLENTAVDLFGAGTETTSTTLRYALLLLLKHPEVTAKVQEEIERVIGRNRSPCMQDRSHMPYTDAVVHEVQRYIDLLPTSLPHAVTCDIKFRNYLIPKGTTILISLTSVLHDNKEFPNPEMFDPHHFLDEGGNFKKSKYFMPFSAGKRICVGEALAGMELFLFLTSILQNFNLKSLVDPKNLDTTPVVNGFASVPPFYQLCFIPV

Regarding `Cc1ncc(CN2CCOCC2)c(-c2ncc[nH]2)c1O` [PTG-630], the pIC50 on CYP1A (phenacetin, from one-point % inhibition at 10 μM, IC50=[I]*(100−P)/P, read-out: Estimated IC50) is 4.28; against CYP2B6, 3.67; against CYP2C8, 4.43; at CYP2C9 (diclofenac, from one-point % inhibition at 10 μM, IC50=[I]*(100−P)/P, read-out: Estimated IC50), 3.55; on CYP3A (CYP3A, testosterone, from one-point % inhibition at 10 μM, IC50=[I]*(100−P)/P, read-out: Estimated IC50), 3.20. Besides, the P % inhib at CYP1A (substrate phenacetin at Km, Inhib Conc. 1.0E−05 M) is recorded as 16.1%; at CYP2B6, 4.5%; on CYP2C8, 21.3%; on CYP2C9 (substrate diclofenac at Km, Inhib Conc. 1.0E−05 M), 3.4%; at CYP3A (CYP3A, substrate testosterone at Km, Inhib Conc. 1.0E−05 M), 1.56%. Further, on CYP3A (10 μM), the “CYP3A inhibition using testosterone as substrate (in words)” value was “very weak inhibition”. Also, the “CYP inhibition (in words)” value with seven CYP enzymes was “weak to undetectable”.

The values above are taken from patent US12139472B2, “Inhibitors of advanced glycation end products” (priority 2019, dated 2024).
